{"source": "patent US11629129B2", "about": "“Microbiocidal picolinamide derivatives” (SYNGENTA PARTICIPATIONS AG, priority 2018, dated 2023)", "key": {"[1]": {"test_system": "Puccinia recondita f. sp. tritici", "assay": "Puccinia recondita f. sp. tritici/Wheat/Leaf Disc Preventative (Brown Rust)", "assay_type": "in vivo", "settings": "foliar, 200 ppm in the formulation, wheat leaf segments cv. Kanzler, inoculated 1 day after application, assessed 7-9 days after application, compared to untreated, read-out: disease control", "method": "Puccinia recondita f. sp. tritici/Wheat/Leaf Disc Preventative (Brown Rust) Wheat leaf segments cv. Kanzler are placed on agar in multiwell plates (24-well format) and sprayed with the formulated test compound diluted in water. The leaf disks are inoculated with a spore suspension of the fungus 1 day after application. The inoculated leaf segments are incubated at 19° C. and 75% rh under a light regime of 12 h light/12 h darkness in a climate cabinet and the activity of a compound is assessed as percent disease control compared to untreated when an appropriate level of disease damage appears in untreated check leaf segments (7-9 days after application)."}, "[2]": {"test_system": "Mycosphaerella arachidis (Cercospora arachidicola)", "assay": "Mycosphaerella arachidis (Cercospora arachidicola)/Liquid Culture (Early Leaf Spot)", "assay_type": "cell-based", "settings": "200 ppm in the formulation, liquid culture, growth inhibition photometrically 4-5 days after application, compared to untreated control, read-out: disease control", "method": "(§1) Mycosphaerella arachidis (Cercospora arachidicola)/Liquid Culture (Early Leaf Spot) Conidia of the fungus from cryogenic storage are directly mixed into nutrient broth (PDB potato dextrose broth). After placing a (DMSO) solution of test compound into a microtiter plate (96-well format), the nutrient broth containing the fungal spores is added. The test plates are incubated at 24° C. and the inhibition of growth is determined photometrically 4-5 days after application."}, "[3]": {"test_system": "Monographella nivalis (Microdochium nivale)", "assay": "Monographella nivalis (Microdochium nivale)/Liquid Culture (Foot Rot Cereals)", "assay_type": "cell-based", "settings": "200 ppm in the formulation, liquid culture, growth inhibition photometrically 4-5 days after application, compared to untreated control, read-out: disease control", "method": "as §1, with “Monographella nivalis (Microdochium nivale)/Liquid” for “Mycosphaerella arachidis (Cercospora arachidicola)/Liquid”, “(Foot Rot Cereals)” for “(Early Leaf Spot)”"}, "[4]": {"test_system": "Mycosphaerella graminicola (Septoria tritici)", "assay": "Mycosphaerella graminicola (Septoria tritici)/Liquid Culture (Septoria Blotch)", "assay_type": "cell-based", "settings": "Zymoseptoria tritici; 200 ppm in the formulation; liquid culture, growth inhibition photometrically 4 to 5 days after application; compared to untreated control; read-out: disease control", "method": "as §1, with “graminicola (Septoria tritici)/Liquid” for “arachidis (Cercospora arachidicola)/Liquid”, “(Septoria Blotch)” for “(Early Leaf Spot)”, “4 to 5” for “4-5”"}, "[5]": {"test_system": "Glomerella lagenarium (Colletotrichum lagenarium)", "assay": "Glomerella lagenarium (Colletotrichum lagenarium)/Liquid Culture (Anthracnose)", "assay_type": "cell-based", "settings": "Colletotrichum orbiculare; 200 ppm in the formulation; liquid culture, growth inhibition photometrically 3 to 4 days after application; compared to untreated control; read-out: disease control", "method": "as §1, with “Glomerella lagenarium (Colletotrichum lagenarium)/Liquid” for “Mycosphaerella arachidis (Cercospora arachidicola)/Liquid”, “(Anthracnose)” for “(Early Leaf Spot)”, “measured” for “determined”, “3 to 4” for “4-5”"}, "[6]": {"test_system": "Botryotinia fuckeliana (Botrvtis cinerea)", "assay": "Botryotinia fuckeliana (Botrvtis cinerea)/Liquid Culture (Gray Mould)", "assay_type": "cell-based", "settings": "Botrytis cinerea; 200 ppm in the formulation; liquid culture, growth inhibition photometrically 3-4 days after application; compared to untreated control; read-out: disease control", "method": "as §1, with “Botryotinia fuckeliana (Botrvtis cinerea)/Liquid” for “Mycosphaerella arachidis (Cercospora arachidicola)/Liquid”, “(Gray Mould)” for “(Early Leaf Spot)”, “(Vogels” for “(PDB potato dextrose”, “3-4” for “4-5”"}, "[7]": {"test_system": "Phaeosphaeria nodorum (Septoria nodorum)", "assay": "Phaeosphaeria nodorum (Septoria nodorum)/Wheat/Leaf Disc Preventative (Glume Blotch)", "assay_type": "in vivo", "settings": "Parastagonospora nodorum, foliar; 200 ppm in the formulation; wheat leaf segments cv. Kanzler, inoculated 2 days after application, assessed 5-7 days after application; compared to untreated; read-out: disease control", "method": "Phaeosphaeria nodorum (Septoria nodorum)/Wheat/Leaf Disc Preventative (Glume Blotch) Wheat leaf segments cv. Kanzler are placed on agar in a multiwell plate (24-well format) and sprayed with the formulated test compound diluted in water. The leaf disks are inoculated with a spore suspension of the fungus 2 days after application. The inoculated test leaf disks are incubated at 20° C. and 75% rh under a light regime of 12 h light/12 h darkness in a climate cabinet and the activity of a compound is assessed as percent disease control compared to untreated when an appropriate level of disease damage appears in untreated check leaf disks (5-7 days after application)."}}}
{"molecule": "COc1ccnc(C(=O)N[C@@H](C)C(=O)O[C@@H](C)c2ccc(-c3ccc(Cl)cn3)cc2)c1O", "note": "[I.aa.001, [(1S)-1-[4-(5-chloro-2-pyridyl)phenyl]ethyl] (2S)-2-[(3-hydroxy-4-methoxy-pyridine-2-carbonyl)amino] propanoate]", "values": [{"measurement": "pest or weed control at 200 ppm", "setting": "[1]", "value": "≥ 80", "unit": "%"}, {"measurement": "inhibition of growth at 200 ppm", "setting": "[2]", "value": "≥ 80", "unit": "%"}, {"measurement": "inhibition of growth at 200 ppm", "setting": "[3]", "value": "≥ 80", "unit": "%"}, {"measurement": "inhibition of growth at 200 ppm", "setting": "[4]", "value": "≥ 80", "unit": "%"}, {"measurement": "melting point", "value": "144 to 145", "unit": "°C"}, {"measurement": "inhibition of growth at 200 ppm", "setting": "[5]", "value": "≥ 80", "unit": "%"}]}
{"molecule": "COc1ccnc(C(=O)N[C@@H](C)C(=O)O[C@@H](C)c2ccc(-c3cccc(C)c3C)cc2)c1O", "note": "[I.m.001, [(1S)-1-[4-(2,3-dimethylphenyl)phenyl]ethyl] (2S)-2-[(3-hydroxy-4-methoxy-pyridine-2-carbonyl)amino] propanoate]", "values": [{"measurement": "pest or weed control at 200 ppm", "setting": "[1]", "value": "≥ 80", "unit": "%"}, {"measurement": "inhibition of growth at 200 ppm", "setting": "[2]", "value": "≥ 80", "unit": "%"}, {"measurement": "inhibition of growth at 200 ppm", "setting": "[6]", "value": "≥ 80", "unit": "%"}, {"measurement": "pest or weed control at 200 ppm", "setting": "[7]", "value": "≥ 80", "unit": "%"}, {"measurement": "inhibition of growth at 200 ppm", "setting": "[3]", "value": "≥ 80", "unit": "%"}, {"measurement": "inhibition of growth at 200 ppm", "setting": "[4]", "value": "≥ 80", "unit": "%"}, {"measurement": "inhibition of growth at 200 ppm", "setting": "[5]", "value": "≥ 80", "unit": "%"}]}
{"molecule": "COc1ccnc(C(=O)N[C@@H](C)C(=O)O[C@@H](C)c2ccc(-c3ccc(Cl)cc3C)cc2)c1O", "note": "[I.n.001, [(1S)-1-[4-(4-chloro-2-methyl-phenyl)phenyl]ethyl] (2S)-2-[(3-hydroxy-4-methoxy-pyridine-2-carbonyl)amino] propanoate]", "values": [{"measurement": "pest or weed control at 200 ppm", "setting": "[1]", "value": "≥ 80", "unit": "%"}, {"measurement": "inhibition of growth at 200 ppm", "setting": "[2]", "value": "≥ 80", "unit": "%"}, {"measurement": "inhibition of growth at 200 ppm", "setting": "[6]", "value": "≥ 80", "unit": "%"}, {"measurement": "pest or weed control at 200 ppm", "setting": "[7]", "value": "≥ 80", "unit": "%"}, {"measurement": "inhibition of growth at 200 ppm", "setting": "[3]", "value": "≥ 80", "unit": "%"}, {"measurement": "inhibition of growth at 200 ppm", "setting": "[4]", "value": "≥ 80", "unit": "%"}, {"measurement": "inhibition of growth at 200 ppm", "setting": "[5]", "value": "≥ 80", "unit": "%"}]}
{"molecule": "COc1ccnc(C(=O)N[C@@H](C)C(=O)O[C@@H](C)c2ccc(-c3ccc(Br)cc3)cc2)c1O", "note": "[I.v.001, [(1S)-1-[4-(4-bromophenyl)phenyl]ethyl] (2S)-2-[(3-hydroxy-4-methoxy-pyridine-2-carbonyl)amino] propanoate]", "values": [{"measurement": "pest or weed control at 200 ppm", "setting": "[1]", "value": "≥ 80", "unit": "%"}, {"measurement": "inhibition of growth at 200 ppm", "setting": "[2]", "value": "≥ 80", "unit": "%"}, {"measurement": "inhibition of growth at 200 ppm", "setting": "[6]", "value": "≥ 80", "unit": "%"}, {"measurement": "pest or weed control at 200 ppm", "setting": "[7]", "value": "≥ 80", "unit": "%"}, {"measurement": "inhibition of growth at 200 ppm", "setting": "[3]", "value": "≥ 80", "unit": "%"}, {"measurement": "inhibition of growth at 200 ppm", "setting": "[4]", "value": "≥ 80", "unit": "%"}, {"measurement": "inhibition of growth at 200 ppm", "setting": "[5]", "value": "≥ 80", "unit": "%"}]}
